The values that follow come from patent US11820773B2, “Tricyclic compounds” (ALIGOS THERAPEUTICS, INC., priority 2020, dated 2023).

This assay concerns HBV. Description: HBV-DNA antiviral assay using HepG2.117 cells (intracellular HBV DNA by qPCR). The class given is cell-based, genotype D HBV. To be noted: HBV DNA inhibition, 3 days incubation, 2% DMSO. The gist of the method: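 Endpoints are intracellular HBV DNA by qPCR (interpolated from a gBlock standard curve) and ATP-based viability in duplicate plates. Doxycycline-free HepG2.117 Tet-off cells received compounds (9 concentrations, 4-fold steps, 2% DMSO) for 3 days. Inhibition normalised to DMSO wells; EC50/EC90/CC50 by curve fitting.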

Regarding `Cc1nn[nH]c1-c1ccc(-n2c(=O)c3c(n4ncc(Cc5ccccc5)c24)CN(C(=O)c2ccc(Br)c(C(F)(F)F)c2)[C@@H](C)C3)cc1` (stereo in doubt) [Compound 80b, rac-(11S)-5-benzyl-12-[4-bromo-3-(trifluoromethyl)benzoyl]-11-methyl-7-[4-(4-methyl-1H-triazol-5-yl)phenyl]-2,3,7,12 tetrazatricyclo[7.4.0.0^2,6]trideca-1(9),3,5-trien-8-one], the EC50 (Hepatitis B virus, 72 h) lay in the range of 50 to 500 nM.
The molecule `Cc1nn[nH]c1-c1ccc(-n2c(=O)c3c(n4ncc(CC5CC5)c24)CN(C(=O)c2ccc(Br)c(C(F)(F)F)c2)[C@@H](C)C3)cc1` (stereo in doubt) [Compound 75b, rac-(11S)-12-[4-bromo-3-(trifluoromethyl)benzoyl]-5-(cyclopropylmethyl)-11-methyl-7-[4-(4-methyl-1H-triazol-5-yl)phenyl]-2,3,7,12-tetrazatricyclo[7.4.0.0^2,6]trideca-1(9),3,5-trien-8-one] yielded an EC50 (Hepatitis B virus, 72 h) of 50 to 500 nM.
As for `C[C@@H]1Cc2c(n3ncc(CC4CCC4)c3n(-c3ccc(-c4nncn4C)cc3)c2=O)CN1C(=O)c1ccc(Br)c(C(F)(F)F)c1` (stereo in doubt) [Compound 45a, rac-(11R)-12-[4-bromo-3-(trifluoromethyl)benzoyl]-5-(cyclobutylmethyl)-11-methyl-7-[4-(4-methyl-1,2,4-triazol-3-yl)phenyl]-2,3,7,12-tetrazatricyclo[7.4.0.0^2,6]trideca-1(9),3,5-trien-8-one], the EC50 (Hepatitis B virus, 72 h) was less than 50 nM.
For the setting “Hepatitis B virus, 72 h”, `Cc1ncnn1-c1ccc(-n2c(=O)c3c(n4ncc(Cc5ccccc5)c24)CN(C(=O)c2ccc(Br)c(C(F)(F)F)c2)CC3)cc1` [Compound 36, 5-benzyl-12-[4-bromo-3-(trifluoromethyl)benzoyl]-7-[4-(5-methyl-1,2,4-triazol-1-yl)phenyl]-2,3,7,12-tetrazatricyclo[7.4.0.0^2,6]trideca-1(9),3,5-trien-8-one] came in with an EC50 of less than 50 nM.
`Cc1cnn(-c2ccc(-n3c(=O)c4c(n5ncc(CC(C)C)c35)CN(C(=O)c3ccc(Br)c(C(F)(F)F)c3)[C@@H](C)C4)cc2)c1` (stereo in doubt) [Compound 98b, rac-(11S)-12-[4-bromo-3-(trifluoromethyl)benzoyl]-5-isobutyl-11-methyl-7-[4-(4-methylpyrazol-1-yl)phenyl]-2,3,7,12-tetrazatricyclo[7.4.0.0^2,6]trideca-1(9),3,5-trien-8-one] displayed an EC50 (Hepatitis B virus, 72 h) of 50 to 500 nM.
With `CNc1n[nH]c2cc(-n3c(=O)c4c(n5ncc(Cc6ccccc6)c35)CN(C(=O)c3ccc(Br)c(C(F)(F)F)c3)[C@H](C)C4)ccc12` (stereo in doubt) [Compound 43a, rac-(11R)-5-benzyl-12-[4-bromo-3-(trifluoromethyl)benzoyl]-11-methyl-7-[3-(methylamino)-1H-indazol-6-yl]-2,3,7,12-tetrazatricyclo[7.4.0.0^2,6]trideca-1(9),3,5-trien-8-one], the EC50 (Hepatitis B virus, 72 h) is less than 50 nM.
Turning to `CNC(=O)c1ccc(-n2c(=O)c3c(n4ncc(CC(C)C)c24)CN(C(=O)c2ccc(Br)c(C(F)(F)F)c2)[C@@H](C)C3)cc1` (stereo in doubt) [Compound 50b, N-methyl-4-[rac-(11S)-12-[4-bromo-3-(trifluoromethyl)benzoyl]-5-isobutyl-11-methyl-8-oxo-2,3,7,12-tetrazatricyclo[7.4.0.0^2,6]trideca-1(9),3,5-trien-7-yl]benzamide], the EC50 (Hepatitis B virus, 72 h) lay within 50 to 500 nM.
`CNc1n[nH]c2cc(-n3c(=O)c4c(n5ncc(CC(C)C)c35)CN(C(=O)c3ccc(Cl)c(C(F)(F)F)c3)[C@H](C)C4)ccc12` (stereo in doubt) [Compound 56a, rac-(11R)-12-[4-chloro-3-(trifluoromethyl)benzoyl]-5-isobutyl-11-methyl-7-[3-(methylamino)-1H-indazol-6-yl]-2,3,7,12-tetrazatricyclo[7.4.0.0^2,6]trideca-1(9),3,5-trien-8-one] yielded an EC50 (Hepatitis B virus, 72 h) of less than 50 nM.
For the setting “Hepatitis B virus, 72 h”, `C[C@H]1Cc2c(n3ncc(Cc4ccccc4)c3n(-c3ccc(-c4nnc(C(F)(F)F)[nH]4)cc3)c2=O)CN1C(=O)c1ccc(Br)c(C(F)(F)F)c1` (stereo in doubt) [Compound 74b, rac-(11S)-5-benzyl-12-[4-bromo-3-(trifluoromethyl)benzoyl]-11-methyl-7-[4-[5-(trifluoromethyl)-4H-1,2,4-triazol-3-yl]phenyl]-2,3,7,12-tetrazatricyclo[7.4.0.0^2,6]trideca-1(9),3,5-trien-8-one] returned an EC50 of 50 to 500 nM.
In turn, `Cc1nn[nH]c1-c1ccc(-n2c(=O)c3c(n4ncc(CC(C)C)c24)CN(C(=O)c2ccc(Cl)c(C(F)(F)F)c2)[C@@H](C)C3)cc1` (stereo in doubt) [Compound 63b, rac-(11S)-12-[4-chloro-3-(trifluoromethyl)benzoyl]-5-isobutyl-11-methyl-7-[4-(4-methyl-1H-triazol-5-yl)phenyl]-2,3,7,12-tetrazatricyclo[7.4.0.0^2,6]trideca-1(9),3,5-trien-8-one] showed an EC50 (Hepatitis B virus, 72 h) of 500 to 5000 nM.
Same read-out and setting: then `CNC(=O)c1ccc(-n2c(=O)c3c(n4ncc(Cc5ccccc5)c24)CN(C(=O)c2ccc(Br)c(C(F)(F)F)c2)[C@H](C)C3)cc1` (stereo in doubt) [Compound 38a, N-methyl-4-[rac-(11R)-5-benzyl-12-[4-bromo-3-(trifluoromethyl)benzoyl]-11-methyl-8-oxo-2,3,7,12-tetrazatricyclo[7.4.0.0^2,6]trideca-1(9),3,5-trien-7-yl]benzamide], with less than 50 nM; and `Cc1nnnn1-c1ccc(-n2c(=O)c3c(n4ncc(Cc5ccccc5)c24)CN(C(=O)c2ccc(Br)c(C(F)(F)F)c2)[C@H](C)C3)cc1` (stereo in doubt) [Compound 46a, rac-(11R)-5-benzyl-12-[4-bromo-3-(trifluoromethyl)benzoyl]-11-methyl-7-[4-(5-methyltetrazol-1-yl)phenyl]-2,3,7,12-tetrazatricyclo[7.4.0.0^2,6]trideca-1(9),3,5-trien-8-one], with less than 50 nM.
Same read-out and setting: then `C[C@@H]1Cc2c(n3ncc(Cc4ccccc4)c3n(-c3ccc(-n4nnnc4C(F)(F)F)cc3)c2=O)CN1C(=O)c1ccc(Br)c(C(F)(F)F)c1` [Compound 87, 5-benzyl-12-[4-bromo-3-(trifluoromethyl)benzoyl]-11-methyl-7-[4-[5-(trifluoromethyl)tetrazol-1-yl]phenyl]-2,3,7,12-tetrazatricyclo[7.4.0.0^2,6]trideca-1(9),3,5-trien-8-one], with 50 to 500 nM.
`CNC(=O)c1ccc(-n2c(=O)c3c(n4ncc(CC5CCC5)c24)CN(C(=O)c2ccc(Br)c(C(F)(F)F)c2)[C@H](C)C3)cc1` (stereo in doubt) [Compound 37a, N-methyl-4-[rac-(11R)-12-[4-bromo-3-(trifluoromethyl)benzoyl]-5-(cyclobutylmethyl)-11-methyl-8-oxo-2,3,7,12-tetrazatricyclo[7.4.0.0^2,6]trideca-1(9),3,5-trien-7-yl]benzamide] yielded an EC50 (Hepatitis B virus, 72 h) of less than 50 nM.
Molecule `CNC(=O)c1ccc(-n2c(=O)c3c(n4ncc(Cc5ccccc5)c24)CN(C(=O)c2ccc(Br)c(C(F)(F)F)c2)[C@@H](C)C3)cc1` (stereo in doubt) [Compound 38b, N-methyl-4-[rac-(11S)-5-benzyl-12-[4-bromo-3-(trifluoromethyl)benzoyl]-11-methyl-8-oxo-2,3,7,12-tetrazatricyclo[7.4.0.0^2,6]trideca-1(9),3,5-trien-7-yl]benzamide] showed an EC50 (Hepatitis B virus, 72 h) of less than 50 nM.
Turning to `Cc1nnc(-c2ccc(-n3c(=O)c4c(n5ncc(Cc6ccccc6)c35)CN(C(=O)c3ccc(Br)c(Cl)c3)CC4)cc2)[nH]1` [Compound 1, 5-benzyl-12-(4-bromo-3-chloro-benzoyl)-7-[4-(5-methyl-4H-1,2,4-triazol-3-yl)phenyl]-2,3,7,12-tetrazatricyclo[7.4.0.0^2,6]trideca-1(9),3,5-trien-8-one], for the setting “Hepatitis B virus, 72 h”, the EC50 is less than 50 nM.
As for `C[C@H]1Cc2c(n3ncc(Cc4ccccc4)c3n(-c3ccc(-c4noc(=O)n4C)cc3)c2=O)CN1C(=O)c1ccc(Br)c(C(F)(F)F)c1` (stereo in doubt) [Compound 41b, 4-methyl-3-[4-[rac-(11S)-5-benzyl-12-[4-bromo-3-(trifluoromethyl)benzoyl]-11-methyl-8-oxo-2,3,7,12-tetrazatricyclo[7.4.0.0^2,6]trideca-1(9),3,5-trien-7-yl]phenyl]-1,2,4-oxadiazol-5-one], the EC50 (Hepatitis B virus, 72 h) lay in the range of 50 to 500 nM.
As to `Cc1nn[nH]c1-c1ccc(-n2c(=O)c3c(n4ncc(Cc5ccccc5)c24)CN(C(=O)c2ccc(Br)c(C(F)(F)F)c2)CC3)cc1` [Compound 35, 5-benzyl-12-[4-bromo-3-(trifluoromethyl)benzoyl]-7-[4-(4-methyl-1H-triazol-5-yl)phenyl]-2,3,7,12-tetrazatricyclo[7.4.0.0^2,6]trideca-1(9),3,5-trien-8-one], the EC50 was less than 50 nM.
For the molecule `Cc1nnc(-c2ccc(-n3c(=O)c4c(n5ncc(Cc6ccccc6)c35)CN(C(=O)c3ccc(Cl)c(C(F)(F)F)c3)[C@H](C)C4)cc2)[nH]1` (stereo in doubt) [Compound 52a, rac-(11R)-5-benzyl-12-[4-chloro-3-(trifluoromethyl)benzoyl]-11-methyl-7-[4-(5-methyl-4H-1,2,4-triazol-3-yl)phenyl]-2,3,7,12-tetrazatricyclo[7.4.0.0^2,6]trideca-1(9),3,5-trien-8-one], the EC50 (Hepatitis B virus, 72 h) was less than 50 nM.
In turn, `C#CCc1cnn2c3c(c(=O)n(-c4ccc(C(=O)NC)cc4)c12)C[C@@H](C)N(C(=O)c1ccc(Br)c(C(F)(F)F)c1)C3` (stereo in doubt) [Compound 78a, N-methyl-4-[rac-(11R)-12-[4-bromo-3-(trifluoromethyl)benzoyl]-11-methyl-8-oxo-5-prop-2-ynyl-2,3,7,12-tetrazatricyclo[7.4.0.0^2,6]trideca-1 (9),3,5-trien-7-yl]benzamide] gave an EC50 (Hepatitis B virus, 72 h) of less than 50 nM.

Usually EC50 stands for the midpoint of the concentration-response curve. Read a high EC50 as a need for much substance.
